Assay: xn = mol fraction of the nth substance listed
Settings: 101 kPa, Liquid; for speed of sound: Sing-around technique in a fixed-path interferometer; for mass density: Vibrating tube method

CCCCCCCC[n+]1ccn(C)c1.[Cl-] [1-methyl-3-octylimidazolium chloride] + O
Settings | mass density, 308 K [kg/m3] | mass density, 313 K [kg/m3] | speed of sound, 308 K [m/s] | speed of sound, 313 K [m/s]
x1 = 0.000276 | 994.15 | 992.324 | – | 1531.1
x1 = 0.000495 | 994.182 | 992.347 | – | 1532.6
x1 = 0.000781 | 994.262 | 992.417 | – | 1534.6
x1 = 0.00102 | 994.297 | 992.447 | – | 1536.2
x1 = 0.0013 | 994.364 | 992.496 | – | 1538.1
x1 = 0.001503 | 994.399 | 992.524 | – | 1539.5
x1 = 0.001892 | 994.479 | 992.591 | – | 1542
x1 = 0.002073 | 994.514 | 992.619 | – | 1543.2
x1 = 0.002376 | 994.575 | 992.664 | – | 1545
x1 = 0.00261 | 994.623 | 992.706 | – | 1546.6
x1 = 0.002774 | 994.653 | 992.728 | – | 1547.5
x1 = 0.003111 | 994.711 | 992.774 | 1542.3 | 1549.5
x1 = 0.003716 | 994.828 | 992.866 | 1545.9 | 1552.7
x1 = 0.003899 | 994.859 | 992.89 | 1546.9 | 1553.7
x1 = 0.004079 | 994.891 | 992.912 | 1548 | 1554.6
x1 = 0.004181 | 994.908 | 992.929 | 1548.6 | 1555.1
x1 = 0.004462 | 994.953 | 992.963 | 1550.1 | 1556.5
x1 = 0.004601 | 994.974 | 992.978 | 1550.8 | 1557.1
x1 = 0.004981 | 995.028 | 993.015 | 1552.6 | 1558.7
x1 = 0.005198 | 995.061 | 993.04 | 1553.5 | 1559.5
x1 = 0.005607 | 995.112 | 993.076 | 1555.3 | 1561
x1 = 0.005782 | 995.128 | 993.084 | 1555.9 | 1561.6

— the NIST ThermoML archive (doi:10.1016/j.jct.2012.11.032)
